Tests used:
Format in all cases: in vivo
[1] = system: barnyardgrass (Echinochloa crus-galli); assay: Test B flooded paddy test; conditions: Flood, 250 g ai/ha; 0 to 100 scale where 0 is no effect and 100 is complete control; 13 to 15 d
In short: (§1)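 Percent control, visually estimated after 13–15 d in the greenhouse on a 0–100 basis, compares treated pots with untreated ones; compound was put into paddy water 3 cm above the soil when plants had two leaves.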

[2] = system: ducksalad (Heteranthera limosa); assay: Test B flooded paddy test; conditions: Flood, 250 g ai/ha; 0 to 100 scale where 0 is no effect and 100 is complete control; 13 to 15 d
In short: as §1

[3] = system: sedge, umbrella (small-flower umbrella sedge, Cyperus difformis); assay: Test B flooded paddy test; conditions: Flood, 250 g ai/ha; 0 to 100 scale where 0 is no effect and 100 is complete control; 13 to 15 d
In short: as §1

[4] = system: rice (Oryra sativa); assay: Test B flooded paddy test; conditions: Flood, 250 g ai/ha; 0 to 100 scale where 0 is no effect and 100 is complete control; 13 to 15 d
In short: as §1

[5] = system: barnyardgrass (Echinochloa crus-galli); assay: Test A postemergence; conditions: postemergence, 0 to 100 scale (0 no effect, 100 complete control)
In short: (§2)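 Visual injury scores from 0, no effect, to 100, complete control, were assigned versus untreated controls roughly 10 d after treatment in the greenhouse. Test chemicals, formulated with surfactant in a non-phytotoxic solvent, were applied to planted seeds as a preemergence soil spray or postemergence to one- to two-leaf plants 2 to 10 cm tall, in loam–sand soil.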

[6] = system: ragweed (common ragweed, Ambrosia elatior); assay: Test A postemergence; conditions: postemergence, 0 to 100 scale (0 no effect, 100 complete control)
In short: as §2

[7] = system: corn (Zea mays); assay: Test A postemergence; conditions: postemergence, 0 to 100 scale (0 no effect, 100 complete control)
In short: as §2

[8] = system: blackgrass (Alopecurus myosuroides); assay: Test A postemergence; conditions: postemergence, 0 to 100 scale (0 no effect, 100 complete control)
In short: as §2

[9] = system: giant foxtail (Setaria faberii); assay: Test A postemergence; conditions: postemergence, 0 to 100 scale (0 no effect, 100 complete control)
In short: as §2

[10] = system: pigweed (Amaranthus retroflexus); assay: Test A postemergence; conditions: postemergence, 0 to 100 scale (0 no effect, 100 complete control)
In short: as §2

[11] = system: Kochia (Kochia scoparia); assay: Test A postemergence; conditions: postemergence, 0 to 100 scale (0 no effect, 100 complete control)
In short: as §2

[12] = system: ryegrass, Italian (Italian ryegrass, Lolium multiflorum); assay: Test A postemergence; conditions: postemergence, 0 to 100 scale (0 no effect, 100 complete control)
In short: as §2

[13] = system: Galium (catchweed bedstraw, Galium aparine); assay: Test A postemergence; conditions: postemergence, 0 to 100 scale (0 no effect, 100 complete control)
In short: as §2

[14] = system: wheat (Triticum aestivum); assay: Test A postemergence; conditions: postemergence, 0 to 100 scale (0 no effect, 100 complete control)
In short: as §2

[15] = system: barnyardgrass (Echinochloa crus-galli); assay: Test A preemergence
In short: as §2

[16] = system: ragweed (common ragweed, Ambrosia elatior); assay: Test A preemergence
In short: as §2

[17] = system: giant foxtail (Setaria faberii); assay: Test A preemergence
In short: as §2

[18] = system: pigweed (Amaranthus retroflexus); assay: Test A preemergence
[19] = system: Kochia (Kochia scoparia); assay: Test A preemergence
In short: as §2

[20] = system: ryegrass, Italian (Italian ryegrass, Lolium multiflorum); assay: Test A preemergence
In short: as §2

[21] = system: barnyardgrass (Echinochloa crus-galli); assay: Test C flooded paddy test; conditions: Flood; for Plant response rating (scale of 0 to 100), Barnyardgrass: 0 is no effect, 100 is complete control
Source text: (§3) Plant species in the flooded paddy test consisted of rice (Oryza sativa), sedge, umbrella (small-flower umbrella sedge, Cyperus difformis), ducksalad (Heteranthera limosa), and barnyardgrass (Echinochloa crus-galli) grown to the 2-leaf stage for testing. At time of treatment, test pots were flooded to 3 cm above the soil surface, treated by application of test compounds directly to the paddy water, and then maintained at that water depth for the duration of the test. Treated plants and controls were maintained in a greenhouse for 13 to 15 d, after which time all species were compared to controls and visually evaluated. Plant response ratings, summarized in Table C, are based on a scale of 0 to 100 where 0 is no effect and 100 is complete control. A dash (-) response means no test result.

[22] = system: rice (Oryza sativa); assay: Test C flooded paddy test; conditions: Flood; for Plant response rating (scale of 0 to 100), Rice: 0 is no effect, 100 is complete control
Source text: as §3

[23] = system: ducksalad (Heteranthera limosa); assay: Test C flooded paddy test; conditions: Flood; for Plant response rating (scale of 0 to 100), Ducksalad: 0 is no effect, 100 is complete control
Source text: as §3

[24] = system: sedge, umbrella (small-flower umbrella sedge, Cyperus difformis); assay: Test C flooded paddy test; conditions: Flood; for Plant response rating (scale of 0 to 100), Sedge, Umbrella: 0 is no effect, 100 is complete control
Source text: as §3

[25] = 125 g ai/ha, visual rating after approx. 10 d
[26] = 500 g ai/ha, visual injury, approx. 10 d
[27] = 125 g ai/ha, Preemergence, visual injury after approximately 10 d, 0 to 100 scale where 0 is no effect and 100 is complete control
[28] = 500 g ai/ha, preemergence, 0 to 100 scale, 0 = no effect, 100 = complete control
[29] = 31 g ai/ha, scale 0 to 100 (0 no effect, 100 complete control), 13 to 15 d

Cc1ccc(C2CN(C)C(=O)C2C(=O)Nc2ccccc2F)cc1 (stereo not shown) [Compound 661]
Plant response rating, Barnyardgrass [1]: 80
Plant response rating, Ducksalad [2]: 100
Plant response rating, Sedge, Umbrella [3]: 0
Plant response rating, Rice [4]: 10
Plant response rating, Barnyardgrass [5, 25]: 90
Plant response rating, Barnyardgrass [5, 26]: 90
Plant response rating, Ragweed [6, 25]: 10
Plant response rating, Ragweed [6, 26]: 50
Plant response rating, Corn [7, 25]: 50
Plant response rating, Corn [7, 26]: 90
Plant response rating, Blackgrass [8, 25]: 50
Plant response rating, Blackgrass [8, 26]: 70
Plant response rating, Foxtail, Giant [9, 25]: 90
Plant response rating, Foxtail, Giant [9, 26]: 90
Plant response rating, Pigweed [10, 25]: 0
Plant response rating, Pigweed [10, 26]: 0
Plant response rating, Kochia [11, 25]: 60
Plant response rating, Kochia [11, 26]: 70
Plant response rating, Ryegrass, Italian [12, 25]: 30
Plant response rating, Ryegrass, Italian [12, 26]: 80
Plant response rating, Galium [13, 25]: 50
Plant response rating, Galium [13, 26]: 60
Plant response rating, Wheat [14, 25]: 30
Plant response rating, Wheat [14, 26]: 80
Plant response rating, Barnyardgrass [15, 27]: 90
Plant response rating, Barnyardgrass [15, 28]: 90
Plant response rating, Ragweed [16, 27]: 70
Plant response rating, Ragweed [16, 28]: 80
Plant response rating, Foxtail, Giant [17, 27]: 90
Plant response rating, Foxtail, Giant [17, 28]: 100
Plant response rating, Pigweed [18, 27]: 0
Plant response rating, Pigweed [18, 28]: 40
Plant response rating, Kochia [19, 27]: 50
Plant response rating, Kochia [19, 28]: 70
Plant response rating, Ryegrass, Italian [20, 27]: 30
Plant response rating, Ryegrass, Italian [20, 28]: 50
Plant response rating, Barnyardgrass [21, 29]: 25
Plant response rating (scale of 0 to 100), Barnyardgrass ([21]; 62 g ai/ha): 70
Plant response rating (scale of 0 to 100), Barnyardgrass ([21]; 125 g ai/ha): 80
Plant response rating (scale of 0 to 100), Barnyardgrass ([21]; 250 g ai/ha): 85
Plant response rating, Rice [22, 29]: 0
Plant response rating (scale of 0 to 100), Rice ([22]; 62 g ai/ha): 0
Plant response rating (scale of 0 to 100), Rice ([22]; 125 g ai/ha): 0
Plant response rating (scale of 0 to 100), Rice ([22]; 250 g ai/ha): 10
Plant response rating, Ducksalad [23, 29]: 65
Plant response rating (scale of 0 to 100), Ducksalad ([23]; 62 g ai/ha): 75
Plant response rating (scale of 0 to 100), Ducksalad ([23]; 125 g ai/ha): 95
Plant response rating (scale of 0 to 100), Ducksalad ([23]; 250 g ai/ha): 100
Plant response rating, Sedge, Umbrella [24, 29]: 0
Plant response rating (scale of 0 to 100), Sedge, Umbrella ([24]; 62 g ai/ha): 0
Plant response rating (scale of 0 to 100), Sedge, Umbrella ([24]; 125 g ai/ha): 0
Plant response rating (scale of 0 to 100), Sedge, Umbrella ([24]; 250 g ai/ha): 0

Reference: patent US12077503B2, “Substituted cyclic amides and their use as herbicides” (FMC CORPORATION, priority 2015, dated 2024)
